Literature values, collected in patent US20250213580A1, “Improved Thiopurine Formulation and Treatment Methods” (Douglas Pharmaceuticals Ltd, priority 2022, published 2025).
Like-named read-outs stand apart in the source and are kept apart here.

Test system: spontaneous colitis in a mouse model
Settings: intra-rectal administration

SMILES	effect on colitis (within 14 days, distal colon)	effect on colitis (mid-colon or proximal colon)
S=c1nc[nH]c2nc[nH]c12 [Formulation 6-MP, 3,7-dihydropurine-6-thione]	did not provide any significant improvement in colitis	
Nc1nc(=S)c2[nH]cnc2[nH]1 [Formulation 6-TG, 2-amino-6,7-dihydro-3H-purine-6-thione]	ameliorated spontaneous colitis	no improvement in colitis
